According to PMC5830302 (ACS chemical biology, 2017):

Target: ClbQ (Escherichia coli, UniProt Q0P7K7)
Assay: DTNB-based continuous spectrophotometric thioesterase assay
Type: biochemical
Details: 100 mM Tris HCl, pH 7.4, 20 mM NaCl, 100 uM DTNB, 100 nM ClbQ, 37 °C

Row | Structure (SMILES) | DTNB-based continuous spectrophotometric thioesterase assay (412 nm)
1 | CCCCCCCCCCCCCC(=O)SCCNC(C)=O [myristoyl-SNAC] | ClbQ has thioesterase activity with model straight-chain acyl-SNACs
2 | CC(=O)NCCSC(C)=O [acetyl-SNAC] | ClbQ has thioesterase activity with model straight-chain acyl-SNACs
